Tests used:
Type in all cases: in vivo
[1] = test system: goosegrass (Eleusine indica); assay: Test C postemergence, goosegrass; conditions: visual injury, 0 to 100 scale (0 no effect, 100 complete control)
Text: (§1) Seeds of plant species selected from blackgrass (Alopecurus myosuroides), corn (Zea mays), foxtail, giant (giant foxtail, Setaria faberi), goosegrass (Eleusine indica), kochia (Bassia scoparia), oat, wild (wild oat, Avena fatua), pigweed, palmer (palmer amaranth, Amaranthus palmeri), ragweed (common ragweed, Ambrosia artemisiifolia), ryegrass, Italian (Italian ryegrass, Lolium multiflorum), soybean (Glycine max) and wheat (Triticum aestivum) were planted into a blend of loam soil and sand and treated preemergence with a directed soil spray using test chemicals formulated in a non-phytotoxic solvent mixture which included a surfactant.
(§2) At the same time, plants selected from these crop and weed species and also galium (catchweed bedstraw, Galium aparine) and horseweed (Erigeron canadensis) were planted in pots containing the same blend of loam soil and sand and treated with postemergence applications of test chemicals formulated in the same manner. Plants ranged in height from 2 to 10 cm and were in the one- to two-leaf stage for the postemergence treatment. Treated plants and untreated controls were maintained in a greenhouse for 10 or 12 days, after which time all treated plants were compared to untreated controls and visually evaluated for injury. Plant response ratings, summarized in Table A, are based on a 0 to 100 scale where 0 is no effect and 100 is complete control. A dash (-) response means no test result.

[2] = test system: goosegrass (Eleusine indica); assay: Test C preemergence, goosegrass; conditions: 0 is no effect, 100 is complete control
Text: as §1, §2

[3] = test system: galium (catchweed bedstraw, Galium aparine); assay: Test C postemergence, galium; conditions: visual injury, 0 to 100 scale (0 no effect, 100 complete control)
Text: as §1, §2

corn (Zea mays) [4] = assay: Test C preemergence, corn; conditions: 0 is no effect, 100 is complete control
Text: as §1, §2

[5] = test system: wheat (Triticum aestivum); assay: Test C postemergence, wheat; conditions: visual injury, 0 to 100 scale (0 no effect, 100 complete control)
Text: as §1, §2

[6] = test system: blackgrass (Alopecurus myosuroides); assay: Test C preemergence, blackgrass; conditions: 0 is no effect, 100 is complete control
Text: as §1, §2

[7] = test system: pigweed, palmer (palmer amaranth, Amaranthus palmeri); assay: Test C preemergence, palmer amaranth; conditions: 0 is no effect, 100 is complete control
Text: as §1, §2

[8] = test system: ryegrass, Italian (Italian ryegrass, Lolium multiflorum); assay: Test C postemergence, Italian ryegrass; conditions: visual injury, 0 to 100 scale (0 no effect, 100 complete control)
Text: as §1, §2

rice (Oryza sativa) = assay: Test D flooded paddy test, rice; design: key: 0 = no effect, 100 = complete control; conditions: 250 g ai/ha, Flood; applied to paddy water at 2-leaf stage; visual rating after 13 days; scale 0 (no effect) to 100 (complete control)
Protocol: (§3) Plant species in the flooded paddy test selected from barnyardgrass (Echinochloa crusgalli), ducksalad (Heteranthera limosa), rice (Oryza sativa), and sedge, umbrella (small-flower umbrella sedge, Cyperus difformis) were grown to the 2-leaf stage for testing. At time of treatment, test pots were flooded to 3 cm above the soil surface, treated by application of test compounds directly to the paddy water, and then maintained at that water depth for the duration of the test. Treated plants and controls were maintained in a greenhouse for 13 days, after which time all species were compared to controls and visually evaluated. Plant response ratings, summarized in Table B, are based on a scale of 0 to 100 where 0 is no effect and 100 is complete control. A dash (-) response means no test result.

[9] = test system: ducksalad (Heteranthera limosa); assay: Test D flooded paddy test, ducksalad; design: key: 0 = no effect, 100 = complete control; conditions: 250 g ai/ha, Flood; applied to paddy water at 2-leaf stage; visual rating after 13 days; scale 0 (no effect) to 100 (complete control)
Protocol: as §3

soybean (Glycine max) [10] = assay: Test C postemergence, soybean; conditions: visual injury, 0 to 100 scale (0 no effect, 100 complete control)
Text: as §1, §2

[11] = test system: sedge, umbrella (small-flower umbrella sedge, Cyperus difformis); assay: Test D flooded paddy test, umbrella sedge; design: key: 0 = no effect, 100 = complete control; conditions: 250 g ai/ha, Flood; applied to paddy water at 2-leaf stage; visual rating after 13 days; scale 0 (no effect) to 100 (complete control)
Protocol: as §3

kochia (Bassia scoparia) [12] = assay: Test C postemergence, kochia; conditions: visual injury, 0 to 100 scale (0 no effect, 100 complete control)
Text: as §1, §2

[13] = test system: foxtail, giant (giant foxtail, Setaria faberi); assay: Test C postemergence, giant foxtail; conditions: visual injury, 0 to 100 scale (0 no effect, 100 complete control)
Text: as §1, §2

[14] = test system: ragweed (common ragweed, Ambrosia artemisiifolia); assay: Test C postemergence, ragweed; conditions: visual injury, 0 to 100 scale (0 no effect, 100 complete control)
Text: as §1, §2

[15] = test system: wheat (Triticum aestivum); assay: Test C preemergence, wheat; conditions: 0 is no effect, 100 is complete control
Text: as §1, §2

[16] = test system: horseweed (Erigeron canadensis); assay: Test C postemergence, horseweed; conditions: visual injury, 0 to 100 scale (0 no effect, 100 complete control)
Text: as §1, §2

[17] = test system: barnyardgrass (Echinochloa crusgalli); assay: Test D flooded paddy test, barnyardgrass; design: key: 0 = no effect, 100 = complete control; conditions: 250 g ai/ha, Flood; applied to paddy water at 2-leaf stage; visual rating after 13 days; scale 0 (no effect) to 100 (complete control)
Protocol: as §3

[18] = test system: ryegrass, Italian (Italian ryegrass, Lolium multiflorum); assay: Test C preemergence, Italian ryegrass; conditions: 0 is no effect, 100 is complete control
Text: as §1, §2

[19] = test system: ragweed (common ragweed, Ambrosia artemisiifolia); assay: Test C preemergence, ragweed; conditions: 0 is no effect, 100 is complete control
Text: as §1, §2

corn (Zea mays) [20] = assay: Test C postemergence, corn; conditions: visual injury, 0 to 100 scale (0 no effect, 100 complete control)
Text: as §1, §2

soybean (Glycine max) [21] = assay: Test C preemergence, soybean; conditions: 0 is no effect, 100 is complete control
Text: as §1, §2

[22] = test system: foxtail, giant (giant foxtail, Setaria faberi); assay: Test C preemergence, giant foxtail; conditions: 0 is no effect, 100 is complete control
Text: as §1, §2

kochia (Bassia scoparia) [23] = assay: Test C preemergence, kochia; conditions: 0 is no effect, 100 is complete control
Text: as §1, §2

[24] = test system: blackgrass (Alopecurus myosuroides); assay: Test C postemergence, blackgrass; conditions: visual injury, 0 to 100 scale (0 no effect, 100 complete control)
Text: as §1, §2

[25] = test system: pigweed, palmer (palmer amaranth, Amaranthus palmeri); assay: Test C postemergence, palmer amaranth; conditions: visual injury, 0 to 100 scale (0 no effect, 100 complete control)
Text: as §1, §2

[26] = test system: oat, wild (wild oat, Avena fatua); assay: Test C preemergence, wild oat; conditions: 0 is no effect, 100 is complete control
Text: as §1, §2

[27] = test system: oat, wild (wild oat, Avena fatua); assay: Test C postemergence, wild oat; conditions: visual injury, 0 to 100 scale (0 no effect, 100 complete control)
Text: as §1, §2

`Cc1cc(C)c(N2CCC(OCC3CCC3)C2=O)cc1NS(=O)(=O)C(F)(F)F` (stereo not shown) [Compound 43] was tested, and the “Goosegrass plant response rating” value ([1]; 31 g ai/ha Postemergence) was 20, the “Goosegrass plant response rating” value ([1]; 125 g ai/ha Postemergence) was 90 and the “Plant response rating (0 to 100 scale), Goosegrass” value ([2]; 31 g ai/ha Preemergence) was 60. The “Plant response rating (0 to 100 scale), Goosegrass” value ([2]; 125 g ai/ha Preemergence) was 100, the “Galium plant response rating” value ([3]; 31 g ai/ha Postemergence) was 70 and the “Galium plant response rating” value ([3]; 125 g ai/ha Postemergence) was 90. For the same compound, the “Plant response rating (0 to 100 scale), Corn” value (corn (Zea mays) [4]; 31 g ai/ha Preemergence) was 40, the “Plant response rating (0 to 100 scale), Corn” value (corn (Zea mays) [4]; 125 g ai/ha Preemergence) was 100 and the “Wheat plant response rating” value ([5]; 31 g ai/ha Postemergence) was 30. For the same compound, the “Wheat plant response rating” value ([5]; 125 g ai/ha Postemergence) was 70, the “Plant response rating (0 to 100 scale), Blackgrass” value ([6]; 31 g ai/ha Preemergence) was 40 and the “Plant response rating (0 to 100 scale), Blackgrass” value ([6]; 125 g ai/ha Preemergence) was 50. The “Plant response rating (0 to 100 scale), Pigweed, Palmer” value ([7]; 31 g ai/ha Preemergence) was 70, the “Plant response rating (0 to 100 scale), Pigweed, Palmer” value ([7]; 125 g ai/ha Preemergence) was 100 and the “Ryegrass, Italian plant response rating” value ([8]; 31 g ai/ha Postemergence) was 30. The “Ryegrass, Italian plant response rating” value ([8]; 125 g ai/ha Postemergence) was 70, the “Plant response rating, Rice” value (rice (Oryza sativa)) was 30 and the “Plant response rating, Ducksalad” value [9] was 95. The “Soybean plant response rating” value (soybean (Glycine max) [10]; 31 g ai/ha Postemergence) was 80, the “Soybean plant response rating” value (soybean (Glycine max) [10]; 125 g ai/ha Postemergence) was 90 and the “Plant response rating, Sedge, Umbrella” value [11] was 95. For the same compound, the “Kochia plant response rating” value (kochia (Bassia scoparia) [12]; 31 g ai/ha Postemergence) was 20, the “Kochia plant response rating” value (kochia (Bassia scoparia) [12]; 125 g ai/ha Postemergence) was 60 and the “Foxtail, Giant plant response rating” value ([13]; 31 g ai/ha Postemergence) was 10. The “Foxtail, Giant plant response rating” value ([13]; 125 g ai/ha Postemergence) was 90, the “Ragweed plant response rating” value ([14]; 31 g ai/ha Postemergence) was 50 and the “Ragweed plant response rating” value ([14]; 125 g ai/ha Postemergence) was 90. For the same compound, the “Plant response rating (0 to 100 scale), Wheat” value ([15]; 31 g ai/ha Preemergence) was 20, the “Plant response rating (0 to 100 scale), Wheat” value ([15]; 125 g ai/ha Preemergence) was 100 and the “Horseweed plant response rating” value ([16]; 31 g ai/ha Postemergence) was 30. For the same compound, the “Horseweed plant response rating” value ([16]; 125 g ai/ha Postemergence) was 60, the “Plant response rating, Barnyardgrass” value [17] was 25 and the “Plant response rating (0 to 100 scale), Ryegrass, Italian” value ([18]; 31 g ai/ha Preemergence) was 80. The “Plant response rating (0 to 100 scale), Ryegrass, Italian” value ([18]; 125 g ai/ha Preemergence) was 100, the “Plant response rating (0 to 100 scale), Ragweed” value ([19]; 31 g ai/ha Preemergence) was 10 and the “Plant response rating (0 to 100 scale), Ragweed” value ([19]; 125 g ai/ha Preemergence) was 60. For the same compound, the “Corn plant response rating” value (corn (Zea mays) [20]; 31 g ai/ha Postemergence) was 40, the “Corn plant response rating” value (corn (Zea mays) [20]; 125 g ai/ha Postemergence) was 90 and the “Plant response rating (0 to 100 scale), Soybean” value (soybean (Glycine max) [21]; 31 g ai/ha Preemergence) was 10. The “Plant response rating (0 to 100 scale), Soybean” value (soybean (Glycine max) [21]; 125 g ai/ha Preemergence) was 90, the “Plant response rating (0 to 100 scale), Foxtail, Giant” value ([22]; 31 g ai/ha Preemergence) was 30 and the “Plant response rating (0 to 100 scale), Foxtail, Giant” value ([22]; 125 g ai/ha Preemergence) was 100. For the same compound, the “Plant response rating (0 to 100 scale), Kochia” value (kochia (Bassia scoparia) [23]; 31 g ai/ha Preemergence) was 60, the “Plant response rating (0 to 100 scale), Kochia” value (kochia (Bassia scoparia) [23]; 125 g ai/ha Preemergence) was 80 and the “Blackgrass plant response rating” value ([24]; 31 g ai/ha Postemergence) was 0. The “Blackgrass plant response rating” value ([24]; 125 g ai/ha Postemergence) was 50, the “Pigweed, Palmer plant response rating” value ([25]; 31 g ai/ha Postemergence) was 40 and the “Pigweed, Palmer plant response rating” value ([25]; 125 g ai/ha Postemergence) was 90. For the same compound, the “Plant response rating (0 to 100 scale), Oat, Wild” value ([26]; 31 g ai/ha Preemergence) was 0, the “Plant response rating (0 to 100 scale), Oat, Wild” value ([26]; 125 g ai/ha Preemergence) was 50 and the “Oat, Wild plant response rating” value ([27]; 31 g ai/ha Postemergence) was 10. For the same compound, the “Oat, Wild plant response rating” value ([27]; 125 g ai/ha Postemergence) was 20.
